Assay results: ChEMBL document CHEMBL1921748, “Renin inhibitors for the treatment of hypertension: design and optimization of a novel series of spirocyclic piperidines” (Bioorg Med Chem Lett, 2011)
Values belong to the compound of their own block, whether it stands above or below them.

Key:
[1] = Oral bioavailability in Sprague-Dawley rat at 3 mg/kg; type: ADME, organism-based; conditions: in vivo
[2] = AUC in Sprague-Dawley rat at 3 mg/kg, po; type: ADME, organism-based; design: dose 3 mg/kg, route oral; conditions: plasma
[3] = Clearance in Sprague-Dawley rat at 3 mg/kg, po and 0.5 mg/kg, iv; type: ADME, organism-based; conditions: in vivo
[4] = Half life in Sprague-Dawley rat at 3 mg/kg, po and 0.5 mg/kg, iv; type: ADME, organism-based; conditions: in vivo
[5] = Volume of distribution at steady state in Sprague-Dawley rat at 3 mg/kg, po and 0.5 mg/kg, iv; type: ADME, organism-based; conditions: in vivo, read-out: Vdss
[6] = Oral bioavailability in Beagle dog at 3 mg/kg; type: ADME, organism-based, Canis lupus familiaris; conditions: in vivo
[7] = AUC in Beagle dog at 3 mg/kg, po; type: ADME, organism-based, Canis lupus familiaris; design: dose 3 mg/kg, route oral; conditions: plasma
[8] = Clearance in Beagle dog at 3 mg/kg, po and 1 mg/kg, iv; type: ADME, organism-based, Canis lupus familiaris; conditions: in vivo
[9] = Half life in Beagle dog at 3 mg/kg, po and 1 mg/kg, iv; type: ADME, organism-based, Canis lupus familiaris; conditions: in vivo
[10] = Volume of distribution at steady state in Beagle dog at 3 mg/kg, po and 1 mg/kg, iv; type: ADME, organism-based, Canis lupus familiaris; conditions: in vivo, read-out: Vdss
[11] = Oral bioavailability in rhesus monkey at 3 mg/kg; type: ADME, organism-based, Macaca mulatta; conditions: in vivo
[12] = AUC in rhesus monkey at 3 mg/kg, po; type: ADME, organism-based, Macaca mulatta; design: dose 3 mg/kg, route oral; conditions: plasma
[13] = Clearance in rhesus monkey at 3 mg/kg, po and 1 mg/kg, iv; type: ADME, organism-based, Macaca mulatta; conditions: in vivo
[14] = Half life in rhesus monkey at 3 mg/kg, po and 1 mg/kg, iv; type: ADME, organism-based, Macaca mulatta; conditions: in vivo
[15] = Volume of distribution at steady state in rhesus monkey at 3 mg/kg, po and 1 mg/kg, iv; type: ADME, organism-based, Macaca mulatta; conditions: in vivo, read-out: Vdss
[16] = Metabolic stability in rat liver microsomes assessed as compound remaining at 1 uM after 30 mins in presence of NADPH; type: ADME, Microsome; conditions: read-out: Stability
[17] = Metabolic stability in human liver microsomes assessed as compound remaining at 1 uM after 30 mins in presence of NADPH; type: ADME, Microsome; conditions: read-out: Stability
[18] = Metabolic stability in Sprague-Dawley rat hepatocytes assessed as compound remaining at 10 uM after 2 hrs; type: ADME, cell-based, Hepatocyte; conditions: read-out: Stability
[19] = Oral bioavailability in Sprague-Dawley rat at 0.3 mg/kg; type: ADME, organism-based; conditions: in vivo
[20] = Oral bioavailability in Sprague-Dawley rat at 30 mg/kg; type: ADME, organism-based; conditions: in vivo
[21] = Clearance in Sprague-Dawley rat at 0.3 mg/kg, po; type: ADME, organism-based; design: dose 0.3 mg/kg, route oral; conditions: in vivo
[22] = system: Rattus norvegicus; assay: Volume of distribution at steady state in Sprague-Dawley rat at 0.3 mg/kg, po; type: ADME, organism-based; design: dose 0.3 mg/kg, route oral; conditions: in vivo
[23] = Half life in Sprague-Dawley rat at 0.3 mg/kg, po; type: ADME, organism-based; design: dose 0.3 mg/kg, route oral; conditions: in vivo
[24] = Apparent permeability of the compound; type: ADME; conditions: not told
[25] = in vitro; conditions: human, liver microsomes
[26] = Metabolic stability in dog liver microsomes assessed as compound remaining at 1 uM after 30 mins in presence of NADPH; type: ADME, Canis lupus familiaris, Microsome; conditions: read-out: Stability
[27] = Metabolic stability in rhesus monkey liver microsomes assessed as compound remaining at 1 uM after 30 mins in presence of NADPH; type: ADME, Macaca mulatta, Microsome; conditions: read-out: Stability

remaining at 0.5 h, 1 µM [16]: 0%
remaining at 0.5 h, 1 µM [17]: 1%
remaining at 2 h, 10 µM [18]: 8%
SMILES: Cc1cccc(CN(C(=O)[C@H]2CNCC[C@@]23OCc2cc(F)c(F)cc23)C2CC2)c1C

remaining at 1 h, 10 µM [25]: 50%
SMILES: O=C([C@H]1CNCC[C@@]12OCc1cc(F)c(F)cc12)N(Cc1cccc(C(F)(F)F)c1Cl)C1CC1

remaining at 0.5 h, 1 µM [16]: 53%
remaining at 0.5 h, 1 µM [17]: 51%
remaining at 0.5 h, 1 µM [26]: 43%
remaining at 0.5 h, 1 µM [27]: 10%
SMILES: COCCCc1cc(CCCN2CCOCC2)c(Cl)c(CN(C(=O)[C@H]2CNCC[C@@]23OCc2cc(F)c(F)cc23)C2CC2)c1

The remaining lines, values behind:

SMILES: COCCCc1cc(CCCN2CCOCC2)c(Cl)c(CN(C(=O)[C@H]2CNCC[C@@]23OCc2cc(F)c(F)cc23)C2CC2)c1.Cl.Cl.Cl
bioavailability [1]: 23%
AUC [2]: 0.37 µM·h
clearance [3]: 47 mL/min/kg
half-life [4]: 5.3 h
Vd [5]: 24 L/kg
bioavailability [6]: 1%
AUC [7]: 0.01 µM·h
clearance [8]: 73 mL/min/kg
half-life [9]: 10 h
Vd [10]: 73 L/kg
bioavailability [11]: 1%
AUC [12]: 0.01 µM·h
clearance [13]: 66 mL/min/kg
half-life [14]: 5 h
Vd [15]: 45 L/kg

SMILES: COCCCc1cc(CN(C(=O)[C@H]2CNCC[C@]2(O)c2ccc(F)c(F)c2)C2CC2)cc(OCCOC)c1
bioavailability [19]: 17%
bioavailability [1]: 29%
bioavailability [20]: 18%
CL/F [21]: 36 mL/min/kg
Vdss [22]: 5 L/kg
half-life [23]: 1.5 h
Papp [24]: 21.5 ×10⁻⁶ cm/s
